From article PMC6916368, “Cell‐Based Optimization of Covalent Reversible Ketoamide Inhibitors Bridging the Unprimed to the Primed Site of the Proteasome β5 Subunit” (Chemmedchem, 2019)
Peptide text beside a SMILES is read from it. * marks the point of attachment. Cbz = O=C(OCc1ccccc1)*; OtBu = CC(C)(C)O*

Key:
[1] = biological target: T1, β1c subunit of isolated human 20S proteasome (Homo sapiens, UniProt P28072); assay: Proteasome inhibition assay (20 S Proteasome Assay Kit, Z‐LLE‐AMC); format: biochemical; conditions: c = 1 µM, n=1; read-out: Inhibition cCP β1
T1 construct: purchased Enzo Life Sciences
Method: (§1) Proteasome inhibition assay. […] The 20 S Proteasome Assay Kit for Drug Discovery was used according to the supplier's protocol using Suc‐LLVY‐AMC (β5), Bz‐VGR‐AMC (β2) or Z‐LLE‐AMC (β1) as substrates (Enzo Life Sciences). Single point measurements of residual activity of proteasome activity were performed at a final concentration of 100 nM (n=3, β5c, β5i) or 1 μM (n=1, β1c, β2c, β5c, β5i, SI chapter 2a, Table S1). […] Inhibitors were prepared in 2‐fold concentration (cfinal=100 nM) and added to proteasomes (mfinal=200 ng/well). After 30 min incubation, substrate was added (cfinal=100 μM), incubated for 60 minutes and fluorescence was read using a Tecan M1000 microplate reader. […] IC50 values were determined from technical duplicates as mean value of three independent experiments.

[2] = biological target: T2, β2c subunit of isolated human 20S proteasome (Homo sapiens, UniProt Q99436); assay: Proteasome inhibition assay (20 S Proteasome Assay Kit, Bz‐VGR‐AMC); format: biochemical; conditions: c = 1 µM, n=1; read-out: Inhibition cCP β2
T2 construct: purchased Enzo Life Sciences
Method: Proteasome inhibition assay. Bortezomib (Selleckchem) and carfilzomib (MedChemExpress) were purchased and used without further purification. The 20 S Proteasome Assay Kit for Drug Discovery was used according to the supplier's protocol using Suc‐LLVY‐AMC (β5), Bz‐VGR‐AMC (β2) or Z‐LLE‐AMC (β1) as substrates (Enzo Life Sciences). Single point measurements of residual activity of proteasome activity were performed at a final concentration of 100 nM (n=3, β5c, β5i) or 1 μM (n=1, β1c, β2c, β5c, β5i, SI chapter 2a, Table S1). […] Inhibitors were prepared in 2‐fold concentration (cfinal=100 nM) and added to proteasomes (mfinal=200 ng/well). After 30 min incubation, substrate was added (cfinal=100 μM), incubated for 60 minutes and fluorescence was read using a Tecan M1000 microplate reader. Dose‐response curves were fitted to the equation Y=100/(1+10^((L°^gIC50−X)*HillSl°^pe)) using GraphPad Prism 7.02. IC50 values were determined from technical duplicates as mean value of three independent experiments.

MV4‐11 cells = assay: Cell viability endpoint assay (Celltiter Blue, 72 h); format: cell-based; conditions: Homo sapiens, MV4-11, mean±SD from two independent experiments
Method: Cell lines. MV4‐11 (ACC 102), Jurkat (ACC 282) and THP‐1 (ACC 16) cells were obtained from DSMZ and maintained at 37 °C and 5 % CO2 at densities between 0.2–1×10^6 cells per mL in RMPI‐1640 medium supplemented with 10 % FBS, L‐glutamine (2 mM) and penicillin/streptomycin.
Cell viability endpoint assay. For the determination of cytotoxicity of proteasome inhibitors 50.000 cells per well were plated in 90 μl RPMI‐1640 medium supplemented with 0.1 % FBS and incubated overnight at 37 °C and 5 % CO2. Inhibitors were serially diluted in RPMI‐1640 medium as 10‐fold stocks and added to cells giving the final concentration (1 nM to 10 μM, Figure S2–S4) and incubated for 72 h at 37 °C and 5 % CO2. Cell viability was determined using the Celltiter Blue assay (Promega) by adding 20 μl of reagent, incubation for 120 minutes at 37 °C and 5 % CO2 and fluorescent read‐out using a Tecan M1000 microplate reader. Dose‐response curves were fitted to the equation “Y=Bottom+(Top‐Bottom)/(1+10^(X−L°^gIC50))” using GraphPad Prism 7.02. IC50 values are determined from technical triplicates as mean value of two independent experiments. Standard deviations (Table S1) as well as dose response curves (SI chapter 2b) are given in the supplementary information.

[3] = biological target: T3, β5c subunit of isolated human 20S proteasome (Homo sapiens, UniProt P28074); assay: Proteasome inhibition assay (20 S Proteasome Assay Kit, Suc‐LLVY‐AMC); format: biochemical; conditions: for inhibition at 1 µM: c = 1 µM, n=1, read-out: Inhibition cCP β5; for inhibition at 0.1 µM: c=100 nM, read-out: Rel. Inhibition β5c
T3 construct: purchased Enzo Life Sciences
Method: as §1

[4] = biological target: T4, β5i subunit of isolated human 20S proteasome (Homo sapiens, UniProt P28062); assay: as above; format: biochemical; conditions: for inhibition at 1 µM: c = 1 µM, n=1, read-out: Inhibition iCP β5; for inhibition at 0.1 µM: c=100 nM, read-out: Rel. Inhibition β5i
T4 construct: purchased Enzo Life Sciences
Method: as §1

SMILES | inhibition at 1 µM [1] [%] | inhibition at 1 µM [2] [%] | IC50 (MV4‐11 cells) [nM] | inhibition at 1 µM [3] [%] | inhibition at 0.1 µM [3] [%] | inhibition at 1 µM [4] [%] | inhibition at 0.1 µM [4] [%]
CC(C)C[C@H](NC(=O)OCc1ccccc1)C(=O)N[C@@H](CC(C)C)C(=O)N[C@@H](CC(C)C)C(=O)C(=O)Nc1ccccc1Oc1ccccc1 [Compound 8, Benzyl‐((S)‐4‐methyl‐1‐(((S)‐4‐methyl‐1‐(((S)‐5‐methyl‐1,2‐dioxo‐1‐((2‐phenoxyphenyl)‐amino)hexan‐3‐yl)amino)‐1‐oxopentan‐2‐yl)amino)‐1‐oxopentan‐2‐yl)carbamate] | -7 | -4 | 203 ± 22 | 32 | 12 | 7 | 8
CC(C)C[C@H](NC(=O)OCc1ccccc1)C(=O)N[C@@H](CC(=O)OC(C)(C)C)C(=O)N[C@@H](CC(C)C)C(=O)C(=O)Nc1ccccc1 [Compound 16, tert ‐Butyl‐(S)‐3‐((S)‐2‐(((benzyloxy)carbonyl)amino)‐4‐methylpentanamido)‐4‐(((S)‐5‐methyl‐1,2‐dioxo‐1‐(phenylamino)hexan‐3‐yl)amino)‐4‐oxobutanoate] | 12 | -8 | 46 ± 6 | 91 | 57 | 76 | 48
Cc1ccc(NC(=O)C(=O)[C@H](CC(C)C)NC(=O)[C@H](CC(=O)OC(C)(C)C)NC(=O)[C@H](CC(C)C)NC(=O)OCc2ccccc2)c(C)c1 [Compound 17, tert ‐Butyl‐(S)‐3‐((S)‐2‐(((benzyloxy)carbonyl)amino)‐4‐methylpentanamido)‐4‐(((S)‐1‐((2,4‐dime‐thylphenyl)amino)‐5‐methyl‐1,2‐dioxohexan‐3‐yl)amino)‐4‐oxobutanoate] | 11 | -10 | 46 ± 1 | 88 | 43 | 69 | 36
CC(C)C[C@H](NC(=O)OCc1ccccc1)C(=O)N[C@@H](CC(=O)OC(C)(C)C)C(=O)N[C@@H](CC(C)C)C(=O)C(=O)Nc1cccc(Oc2ccccc2)c1 [Compound 19, tert ‐Butyl‐(S)‐3‐((S)‐2‐(((benzyloxy)carbonyl)amino)‐4‐methylpentanamido)‐4‐(((S)‐5‐methyl‐1,2‐dioxo‐1‐((3‐phenoxyphenyl)amino)hexan‐3‐yl)amino)‐4‐oxobutanoate] | -15 | 9 | 36 ± 5 | 84 | 53 | 31 | 43
Cc1ccc(NC(=O)C(=O)[C@H](CC(C)C)NC(=O)[C@H](CC(C)C)NC(=O)[C@H](CC(C)C)NC(=O)c2cc(Cl)ccc2Cl)c(C)c1 [Compound 26, 2,5‐Dichloro‐N‐((S)‐1‐(((S)‐1‐(((S)‐1‐((2,4‐dimethylphenyl)amino)‐5‐methyl‐1,2‐dioxohexan‐3‐yl)amino)‐4‐methyl‐1‐oxopentan‐2‐yl)amino)‐4‐methyl‐1‐oxopentan‐2‐yl)‐benzamide] | -38 | 17 | 25 ± 5 | 51 | 25 | 24 | 4
Cc1ccc(NC(=O)C(=O)[C@H](CC(C)C)NC(=O)[C@H](CC(=O)OC(C)(C)C)NC(=O)[C@H](CC(C)C)NC(=O)c2cc(Cl)ccc2Cl)c(C)c1 [Compound 28, tert ‐Butyl (S)‐3‐((S)‐2‐(2,5‐dichlorobenzamido)‐4‐methylpentanamido)‐4‐(((S)‐1‐((2,4‐dimethyl‐phenyl)amino)‐5‐methyl‐1,2‐dioxohexan‐3‐yl)amino)‐4‐oxobutanoate] | -10 | 6 | 47 ± 5 | 81 | 26 | 52 | 35
CC(C)C[C@H](NC(=O)OCc1ccccc1)C(=O)N[C@@H](CC(=O)OC(C)(C)C)C(=O)N[C@@H](CC(C)C)C(=O)C(=O)Nc1ccc(Oc2ccccc2)cc1 [Compound 20, tert ‐Butyl‐(S)‐3‐((S)‐2‐(((benzyloxy)carbonyl)amino)‐4‐methylpentanamido)‐4‐(((S)‐5‐methyl‐1,2‐dioxo‐1‐((4‐phenoxyphenyl)amino)hexan‐3‐yl)amino)‐4‐oxobutanoate] | -24 | -7 | 68 ± 9 | 38 | 41 | 22 | 40
CC(C)C[C@@H](C=O)NC(=O)[C@H](CC(=O)OC(C)(C)C)NC(=O)[C@H](CC(C)C)NC(=O)OCc1ccccc1 [Compound 5, BSc2118, reference compound] (Cbz-Leu-Asp(OtBu)-Leu-aldehyde) | 16 | 4 | 123 ± 12 | 90 | 54 | 72 | 11
CC(C)C[C@@H](C=O)NC(=O)[C@H](CC(C)C)NC(=O)[C@H](CC(C)C)NC(=O)c1cc(Cl)ccc1Cl [Compound 24, 2,5‐Dichloro‐N‐((S)‐4‐methyl‐1‐(((S)‐4‐methyl‐1‐(((S)‐4‐methyl‐1‐oxopentan‐2‐yl)‐amino)‐1‐oxo‐pentan‐2‐yl)amino)‐1‐oxopentan‐2‐yl)benzamide] | 13 | 26 | 16 ± 1 | 94 | 76 | 89 | 60
CC(C)C[C@H](NC(=O)OCc1ccccc1)C(=O)N[C@@H](CC(=O)OC(C)(C)C)C(=O)N[C@@H](CC(C)C)C(=O)C(=O)Nc1ccccc1Oc1ccccc1 [Compound 18, tert ‐Butyl‐(S)‐3‐((S)‐2‐(((benzyloxy)carbonyl)amino)‐4‐methylpentanamido)‐4‐(((S)‐5‐methyl‐1,2‐dioxo‐1‐((2‐phenoxyphenyl)amino)hexan‐3‐yl)amino)‐4‐oxobutanoate] | -12 | 2 | 76 ± 14 | 59 | 28 | 7 | 18
